In brackets after ≈: the same amount, converted by molar mass.
How the values were obtained:
α4β1 Integrin = molecular target: T1, α4β1 Integrin (Homo sapiens, UniProt P05556+P13612); assay: α4β1 Integrin Adhesion Assay: Jurkat cell adhesion to human plasma fibronectin; assay type: cell-based; settings: Jurkat cells
T1 construct: endogenous in cells; host or cells: Jurkat cells
Description: 96 well plates (Costar 3590 EIA plates) were coated with human fibronectin (Gibco/BRL, cat #33016-023) at a concentration of 10 μg/mL overnight at 4° C. The plates were then blocked with a solution of bovine serum albumin (BSA; 0.3%) in saline. Jurkat™ cells (maintained in log phase growth) were labeled with Calcein AM according to the manufacturer's instructions, and suspended at a concentration of 2×10^6 cells/mL in Hepes/Saline/BSA. The cells were then exposed to test and control compounds for 30 minutes at room temperature before transfer to individual wells of the fibronectin coated plate. Adhesion was allowed to occur for 35 minutes at 37° C. The wells were then washed by gentle aspiration and pipetting with fresh saline. Fluorescence associated with the remaining adherent cells was quantified using a fluorescence plate reader at EX 485/EM 530.
Cell cultures were prepared by first splitting the stationary phase Jurkat™ cells at 1:10 on day one, and 1:2 on day two to perform assay on day 3. The cells split 1:10 on day one were split 1:4 on day 3 for a day 4 assay.
The assay plates were prepared by first making a working solution of Gibco/BRL Human Fibronectin (cat # 33016-023) in PBS++, at 10 μg/mL.
A Costar 3590 EIA plate was then coated with 50 μL/well for 2 hours at room temperature (thought it can also be left overnight at 4° C.). Finally the plate was asperated and blocked with Hepes/Saline Buffer, 100 μL/well, for 1 hour at RT followed by washing three times with 150 μL of PBS++.
Compound dilutions were accomplished by preparing 1:3 serial dilutions of compounds as follows. For each plate (4 compounds/plate) 600 μL were added to 4 Bio-Rad Titertubes in a Titertube rack. Enough compound was added to each appropriate tube to give a 2× concentration using methods well known in the art. Using Falcon Flexiplates, 100 μL of Hepes/Saline buffer or human serum were added to rows B through G. A multi-channel pipetter set to 180 μL was used to with four tips spaced evenly the pipetter. Each set of four tubes was mixed 5 times and 180 μL of 2× compound was transferred to the first column of each compound dilution in Row B, leaving Row A empty. 180 μL were added to the other wells in Row A. Serial dilutions were performed down the plate by transferring 50 μL to the next dilution and mixing 5 times, changing tips each time after mixing. Dilutions were stopped at Row F. Row G had no compound present.
A 20 μg/mL solution in Hepes/Saline buffer or human serum, of 21/6 antibody was the positive control and was set aside in a reagent trough to add to cell suspension plate.
The cell staining was accomplished by first harvesting the log-phase Jurkat™ cells by centrifugation in 50 mL tubes (1100 rpm for 5 minutes). The cells were resuspended in 50 mL PBS++, spun, and resuspend in 20 mL PBS++. The cells were stained by adding 20 μL of Calcein AM for 30 minutes R.T. The volume was brought to 50 mL with Hepes/Saline buffer and the cells were counted, spun, and resuspend to 2×10^6 cells/mL in Hepes/Saline buffer or human serum.
The compounds were incubated using the following procedure. In a new flexiplate, 65 μL of stained cells were added to Rows B through H. Then 65 μL of 2× compounds were added to the appropriate rows following the plate setup and mixed 3×. 65 μL of 2×-21/6 antibody were added to Row H and mixed 3×. Finally the plate was incubated at room temperature for 30 minutes.
Fibronectin adhesion was measured using a fluorescent plate reader at EX 485/EM 530 after the following work up procedure. After incubation, the cells were mixed 3× and 100 μL were transferred to the Fibronectin coated plates and incubated at 37° C. for about 35 minutes. Each plate was washed, row by row, by gently pipetting 100 μL of R.T. PBS++ down the sides of the wells and turning the plate 90 degrees to aspirate. This procedure was repeated for a total of 3 washes. Each well was filled with 100 μL after washing by pipetting down the side of the well. […]

[1] = Cassette dosing and serum analysis for determination of oral bioavailability; assay type: in vivo, rat; settings: male SD rats, oral cassette of 6 compounds, total dose 10 mg/kg, plasma at 4, 8, 12 h
Description: The oral bioavailability was screened by dosing rats with a cassette, i.e. mixture of 6 compounds per dosing solution. The cassette included 5 test articles and a standard compound, for a total dose of 10 mg/kg. Each compound/test article was converted to the sodium salt with equimolar 1 N NaOH and dissolved in water at 2 mg/mL. The cassette was prepared by mixing equal volumes of each of the six solutions. The cassette dosing solution was mixed well and then the pH was adjusted to 7.5–9. The dosing solution was prepared the day before the study and stirred overnight at room temperature.
Male Sprague Dawley (SD) rats from Charles River Laboratories, 6–8 weeks old were used in this screen. Rats were quarantined for at least one day and had continuous access to food and water. On the night before the administration of the cassette, the rats were fasted for approximately 16 h.
Four SD rats were assigned in each cassette. A single dose of the dosing solution was administered orally to each rat. The dosing volume (5 mL/kg) and time were recorded and rats were fed 2 h after dosing.
Blood samples were collected via cardiac puncture at the following time points: 4 h, 8 h and 12 h. Immediately prior to blood collection, rats were anesthetized with CO2 gas within 10–20 seconds. After the 12-hour samples were collected, the rats were euthanized via CO2 asphyxiation followed by cervical dislocation.
Blood samples were kept in heparinized microtainer tubes under sub-ambient temperature (4° C.) before they were processed. Blood samples were centrifuged (10000 rpm for 5 minutes) and plasma samples were removed and stored in a −20° C. freezer until analyzed for drug levels. Drug levels in the plasma were analyzed using the following protocol for direct plasma precipitation.
The in vivo plasma samples were prepared in a 1.5 mL 96-well plate, by adding, in order, 100 μL of the test plasma, 150 μL of methanol, followed by vortexing for 10–20 seconds. 150 μL of 0.05 ng/μL of an Internal Standard in acetonitrile were added and vortexed for 30 seconds.
The standard curve samples were prepared in a 1.5 mL 96-well plate, by adding, in order, 100 μL of control mouse plasma, followed by 150 μL of methanol and vortexing for 10–20 seconds. 150 μL of 0.05 ng/μL of an Internal Standard in acetonitrile were added and vortexed for 30 seconds. The samples were spiked with 0–200 ng (10 concentrations) of the compound of interest in 50% methanol to obtain a standard curve range of 0.5 ng/mL–2,000 ng/mL. Again, the sample was vortexed for 30 seconds.
The samples were then spun for 20–30 minutes at 3000 rpm in an Eppendorf microfuge before 80–90% of supernatant was transferred into a clean 96-well plate. The organic solvent was then evaporated until the samples were dry (under N2 at 40° C./30–60 min (ZymarkTurbovap)).
The residue was then dissolved in […] mobile phase (50% CH3OH/0.1% TFA). LC/MS/MS was then run using a PE-Sciex API-3000 triple quadurpole mass spectrometer (SN0749707), Perkin-Elmer, Series200auto-sampler, and shimadzu 10A pump. Acquisition was done with PE-Sciex Analyst (v1.1) and data analysis and quantification were accomplished using PE-Sciex Analyst (v1.1). A 5–50 μL sample volume was injected onto a reverse phase ThermoHypersil DASH-18 column (Keystone 2.0×20 mm, 5 μm, PN: 8823025-701) using a mobile phase of 25% CH3OH, 0.1% TFA-100% CH3OH, 0.1% TFA. The run time was about 8 minutes at a flow rate of about 300 μL/minutes.
The Area Under the Curve (AUC) was calculated using the linear trapezoidal rule from t=0 to the last sampling time tx (see Handbook of Basic Pharmacokinetics, Wolfgang A. Ritschel and Gregory L. Kearns, 5th ed, 1999). AUC^0→tx═S((Cn+Cn+1)/2))·(tn+1−tn)[(μg/mL)h]
In the case of the cassette dosing paradigm, samples at 4, 8 and 12 h post extravascular dosing, the AUC was calculated from t=0 to t=12 h.

[2] = IC50, Cell Adhesion to Human Plasma Fibronectin (With Human Serum), with human serum
[3] = IC50, Cell Adhesion to Human Plasma Fibronectin (Without the Human Serum), without human serum

T1 sequence (P13612 34-1032): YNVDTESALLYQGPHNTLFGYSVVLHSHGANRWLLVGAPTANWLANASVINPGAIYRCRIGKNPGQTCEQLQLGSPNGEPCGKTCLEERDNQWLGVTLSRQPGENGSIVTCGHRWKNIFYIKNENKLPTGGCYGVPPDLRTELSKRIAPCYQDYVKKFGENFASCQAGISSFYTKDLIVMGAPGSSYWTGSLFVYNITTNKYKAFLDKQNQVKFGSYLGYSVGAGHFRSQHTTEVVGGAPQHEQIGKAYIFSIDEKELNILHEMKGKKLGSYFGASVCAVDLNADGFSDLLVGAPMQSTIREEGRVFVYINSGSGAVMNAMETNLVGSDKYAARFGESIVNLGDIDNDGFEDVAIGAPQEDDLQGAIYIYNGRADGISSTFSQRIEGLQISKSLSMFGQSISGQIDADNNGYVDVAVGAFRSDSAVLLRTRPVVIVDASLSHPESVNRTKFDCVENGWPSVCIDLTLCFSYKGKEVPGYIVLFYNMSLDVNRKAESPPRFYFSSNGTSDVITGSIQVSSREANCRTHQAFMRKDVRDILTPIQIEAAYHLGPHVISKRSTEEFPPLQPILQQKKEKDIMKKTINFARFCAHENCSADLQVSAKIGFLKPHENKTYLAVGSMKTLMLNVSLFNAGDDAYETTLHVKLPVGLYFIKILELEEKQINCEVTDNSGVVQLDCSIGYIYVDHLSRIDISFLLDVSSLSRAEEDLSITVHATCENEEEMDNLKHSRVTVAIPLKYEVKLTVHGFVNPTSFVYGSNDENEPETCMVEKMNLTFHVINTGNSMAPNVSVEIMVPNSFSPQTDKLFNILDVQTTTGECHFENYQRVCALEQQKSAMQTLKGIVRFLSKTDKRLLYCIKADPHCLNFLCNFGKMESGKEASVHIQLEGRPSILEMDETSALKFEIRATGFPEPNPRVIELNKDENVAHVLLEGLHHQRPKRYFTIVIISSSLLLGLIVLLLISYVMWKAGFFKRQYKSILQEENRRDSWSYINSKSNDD
T1 sequence (P05556 21-798): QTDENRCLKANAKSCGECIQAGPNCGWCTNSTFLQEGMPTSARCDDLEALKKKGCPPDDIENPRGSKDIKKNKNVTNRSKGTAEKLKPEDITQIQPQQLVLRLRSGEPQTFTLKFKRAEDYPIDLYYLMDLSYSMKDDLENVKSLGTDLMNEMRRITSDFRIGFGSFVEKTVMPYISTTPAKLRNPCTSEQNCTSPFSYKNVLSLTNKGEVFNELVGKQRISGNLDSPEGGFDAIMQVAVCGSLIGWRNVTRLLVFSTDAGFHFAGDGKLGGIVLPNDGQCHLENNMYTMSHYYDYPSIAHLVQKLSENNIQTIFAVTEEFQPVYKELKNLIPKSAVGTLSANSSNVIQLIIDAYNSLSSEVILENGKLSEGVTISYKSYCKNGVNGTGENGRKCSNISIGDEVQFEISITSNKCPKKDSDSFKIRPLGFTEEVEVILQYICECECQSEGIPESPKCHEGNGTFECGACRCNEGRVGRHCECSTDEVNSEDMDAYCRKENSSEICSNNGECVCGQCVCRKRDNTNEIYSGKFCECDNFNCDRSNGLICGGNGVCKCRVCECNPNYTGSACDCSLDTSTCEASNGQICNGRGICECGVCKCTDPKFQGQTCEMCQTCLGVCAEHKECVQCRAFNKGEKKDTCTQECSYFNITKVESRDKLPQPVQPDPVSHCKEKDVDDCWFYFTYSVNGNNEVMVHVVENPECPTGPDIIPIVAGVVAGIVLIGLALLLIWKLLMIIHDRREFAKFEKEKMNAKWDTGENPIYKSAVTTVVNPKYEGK

| Compound | IC50, Cell Adhesion to Human Plasma Fibronectin (With Human Serum) (α4β1 Integrin; with human serum) [µg/mL] | IC50, Cell Adhesion to Human Plasma Fibronectin (Without the Human Serum) (α4β1 Integrin; without human serum) [ng/mL] | AUC (average AUC 0→12 h) [1] | IC50 (α4β1 Integrin; [2]) [nM] | IC50 (α4β1 Integrin; [3]) [nM] |
| --- | --- | --- | --- | --- | --- |
| 2-{2-diethylamino-5-[(4-chlorobenzenesulfonyl)ethylamino] pyrimidin-4-ylamino}-3-(4-dimethylcarbamoyloxyphenyl)propionic acid [Example 13] | 0.075 | 4 | 1.5806 (μg/mL)h |  |  |
| CCN(CC)c1ncc(N(C)S(=O)(=O)c2cc(F)ccc2F)c(NC(Cc2ccc(OC(=O)N(C)C)cc2)C(=O)O)n1 (stereo not drawn) [Example 25] | 6.72 (≈ 11.1 µM) | 6 (≈ 0.00989 µM) | 0.4559 (μg/mL)h |  |  |
| C#CCN(c1cnc(N(CC)CC)nc1N[C@@H](Cc1ccc(OC(=O)N(C)C)cc1)C(=O)O)S(=O)(=O)c1ccc(F)cc1 [Example 27] |  |  | 1.6258 (μg/mL)h | 106 | 1.63 |
| CCCN(c1cnc(N(CC)CC)nc1NC(Cc1ccc(OC(=O)N(C)C)cc1)C(=O)O)S(=O)(=O)c1ccc(F)cc1 (stereo not drawn) [Example 21, 2-{2-diethylamino-5-[(4-fluorobenzenesulfonyl)-n-propylamino]pyrimidin-4-ylamino}-3-(4-dimethylcarbamoyloxyphenyl) propionic acid] |  |  | 0.6321 (μg/mL)h | 649 | 5.09 |
